In the supplement of paper PMC11451515:

How the values were obtained:
Details in all cases: 48 h
[1] = tested on: NOMO1; experiment: AUC of viability dose-response curve (% viability x log10 dose units); higher = less sensitive
Method in brief: (§1)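 Leukemia cells adapted to each medium were seeded at 500 or 1000 cells/well in 1536-well plates and dosed with library compounds in DMSO at 11 threefold doses from 47 μM to 0.79 nM for 48 h at 37°C. CellTiter-Glo One luminescence was normalised per plate to DMSO and cell-free wells, then fitted with a four-parameter log-logistic model over log10 doses. Area under the curve was taken from this fit by the trapezoidal rule, with curves above full viability scaled and curves failing quality control removed.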

[2] = tested on: P12-Ichikawa; experiment: as above
Method in brief: as §1

[3] = tested on: SEM cells; experiment: as above
Method in brief: as §1

[4] = tested on: SEM cells; experiment: cell viability relative to DMSO control; higher = less cytotoxic
Method in brief: (§2)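 Library compounds in DMSO were pin-dosed in an 11-point threefold series (47 μM to 0.79 nM) onto leukemia cells in 1536-well plates (5 μl). Plates held 500 cells/well of NOMO1 or SEM or 1000 cells/well of P12-Ichikawa, each adapted for at least four passages in each medium. Luminescence was read with CellTiter-Glo One after 48 h at 37°C. Viability means the per-plate percentage relative to DMSO wells, using cell-free wells as background.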

[5] = tested on: NOMO1; experiment: as above
Method in brief: as §2

[6] = tested on: P12-Ichikawa; experiment: as above
Method in brief: as §2

OC(Cn1cncn1)(Cn1cncn1)c1ccc(F)cc1F
AUC of viability dose-response curve
Details | [1] | [2] | [3]
HPLM + 10% dialyzed FBS | 431 | 448 | 463
RPMI 5 mM glucose + 10% FBS | 449 | 448 | 451
RPMI 5 mM glucose + 10% dialyzed FBS | 449 | 462 | 467

CCN1CCC(n2cc(CNc3cc(Cl)c4ncc(C#N)c(Nc5ccc(F)c(Cl)c5)c4c3)nn2)CC1
AUC of viability dose-response curve
Details | [1] | [2] | [3]
HPLM + 10% dialyzed FBS | 433 | 377 | 433
RPMI 5 mM glucose + 10% FBS | 445 | 432 | 367
RPMI 5 mM glucose + 10% dialyzed FBS | 447 | 426 | 400

CN(C)CCc1ccc(O)cc1
[4], HPLM + 10% dialyzed FBS
Details | cell viability [%]
0.000781 µM | 114
0.00234 µM | 120
0.00702 µM | 134
0.0211 µM | 130
0.0632 µM | 137
0.19 µM | 135
0.569 µM | 116
1.71 µM | 140
5.12 µM | 113
15.4 µM | 135
46.1 µM | 110

AUC of viability dose-response curve
Details | [1] | [2] | [3]
HPLM + 10% dialyzed FBS | 454 | 448 | 471
RPMI 5 mM glucose + 10% FBS | 460 | 446 | 455
RPMI 5 mM glucose + 10% dialyzed FBS | 461 | 450 | 471

C=CC[C@@H]1/C=C(\C)C[C@H](C)C[C@H](OC)[C@H]2O[C@@](O)(C(=O)C(=O)N3CCCC[C@H]3C(=O)O[C@H](/C(C)=C/[C@@H]3CC[C@@H](O)[C@H](OC)C3)[C@H](C)[C@@H](O)CC1=O)[C@H](C)C[C@@H]2OC
[4], HPLM + 10% dialyzed FBS
Details | cell viability [%]
0.000781 µM | 102
0.00234 µM | 125
0.00702 µM | 131
0.0211 µM | 123
0.0632 µM | 115
0.19 µM | 111
0.569 µM | 107
1.71 µM | 74.9
5.12 µM | 60.9
15.4 µM | 30.8
46.1 µM | 100

AUC of viability dose-response curve
Details | [1] | [2] | [3]
HPLM + 10% dialyzed FBS | 412 | 466 | 400
RPMI 5 mM glucose + 10% FBS | 453 | 448 | 376
RPMI 5 mM glucose + 10% dialyzed FBS | 436 | 449 | 362

CCCCCC[C@H]1C(=O)O[C@H](C)[C@H](NC(=O)c2cccc(NC=O)c2O)C(=O)O[C@@H](C)[C@@H]1OC(=O)CC(C)C
[4], HPLM + 10% dialyzed FBS
Details | cell viability [%]
0.000781 µM | 90.7
0.00234 µM | 130
0.00702 µM | 111
0.0211 µM | 113
0.0632 µM | 115
0.19 µM | 123
0.569 µM | 137
1.71 µM | 111
5.12 µM | 110
15.4 µM | 112
46.1 µM | 101

AUC of viability dose-response curve
Details | [1] | [2] | [3]
HPLM + 10% dialyzed FBS | 444 | 417 | 476
RPMI 5 mM glucose + 10% FBS | 438 | 403 | 403
RPMI 5 mM glucose + 10% dialyzed FBS | 442 | 403 | 416

C[C@]12CCC(=O)C=C1CC[C@@H]1[C@@H]2CC[C@@]2(C)[C@H]1CC[C@]2(C)O
cell viability [%]
Details | [4] | [5] | [6]
HPLM + 10% dialyzed FBS, 0.000781 µM | 93.6 | 109 | 105
HPLM + 10% dialyzed FBS, 0.00234 µM | 72.8 | 116 | 110
HPLM + 10% dialyzed FBS, 0.00702 µM | 86.5 | 115 | 105
HPLM + 10% dialyzed FBS, 0.0211 µM | 29.9 | 85.3 | 91.5
HPLM + 10% dialyzed FBS, 0.0632 µM | 86.7 | 110 | 104
HPLM + 10% dialyzed FBS, 0.19 µM | 91.1 | 102 | 107
HPLM + 10% dialyzed FBS, 0.569 µM | 68.3 | 108 | 109
HPLM + 10% dialyzed FBS, 1.71 µM | 84.9 | 102 | 104
HPLM + 10% dialyzed FBS, 5.12 µM | 90.9 | 99.1 | 102
HPLM + 10% dialyzed FBS, 15.4 µM | 65.6 | 96.5 | 89.6
HPLM + 10% dialyzed FBS, 46.1 µM | 78.7 | 90.2 | 86.4
RPMI 5 mM glucose + 10% FBS, 0.000781 µM | 101 | 85.1 | 94.7
RPMI 5 mM glucose + 10% FBS, 0.00234 µM | 105 | 89.6 | 93.3
RPMI 5 mM glucose + 10% FBS, 0.00702 µM | 97.3 | 88.9 | 105
RPMI 5 mM glucose + 10% FBS, 0.0211 µM | 29.8 | 97.2 | 79.6
RPMI 5 mM glucose + 10% FBS, 0.0632 µM | 98.1 | 86 | 104
RPMI 5 mM glucose + 10% FBS, 0.19 µM | 95.5 | 96.5 | 102
RPMI 5 mM glucose + 10% FBS, 0.569 µM | 96.1 | 91.1 | 104
RPMI 5 mM glucose + 10% FBS, 1.71 µM | 74.3 | 86.8 | 94.9
RPMI 5 mM glucose + 10% FBS, 5.12 µM | 102 | 98.7 | 97.9
RPMI 5 mM glucose + 10% FBS, 15.4 µM | 95.8 | 87.7 | 92.1
RPMI 5 mM glucose + 10% FBS, 46.1 µM | 85.4 | 83.4 | 79.8
RPMI 5 mM glucose + 10% dialyzed FBS, 0.000781 µM | 95.5 | 107 | 94.6
RPMI 5 mM glucose + 10% dialyzed FBS, 0.00234 µM | 82.2 | 93.8 | 101
RPMI 5 mM glucose + 10% dialyzed FBS, 0.00702 µM | 86.9 | 96.1 | 100
RPMI 5 mM glucose + 10% dialyzed FBS, 0.0211 µM | 41.9 | 86.5 | 80.5
RPMI 5 mM glucose + 10% dialyzed FBS, 0.0632 µM | 95.2 | 105 | 94.8
RPMI 5 mM glucose + 10% dialyzed FBS, 0.19 µM | 98.6 | 93.1 | 100
RPMI 5 mM glucose + 10% dialyzed FBS, 0.569 µM | 107 | 91.6 | 91.7
RPMI 5 mM glucose + 10% dialyzed FBS, 1.71 µM | 99.7 | 98.1 | 106
RPMI 5 mM glucose + 10% dialyzed FBS, 5.12 µM | 100 | 90.9 | 97.5
RPMI 5 mM glucose + 10% dialyzed FBS, 15.4 µM | 98.9 | 91.6 | 87.7
RPMI 5 mM glucose + 10% dialyzed FBS, 46.1 µM | 97.4 | 90.7 | 88.1

AUC of viability dose-response curve
Details | HPLM + 10% dialyzed FBS | RPMI 5 mM glucose + 10% FBS | RPMI 5 mM glucose + 10% dialyzed FBS
[1] | 440 | 430 | 453
[2] | 465 | 458 | 452

C[C@@H]1[C@H](O)[C@@H](C)C=CC=CCCC=CC=CC=CC=C[C@H](O[C@H]2O[C@@H](C)[C@H](O)[C@@H](N)[C@H]2O)CC2O[C@](O)(C[C@@H](O)[C@H](O)CC[C@@H](O)C[C@@H](O)C[C@@H](O)CC(=O)O[C@H]1C)C[C@H](O)[C@H]2C(=O)O
AUC of viability dose-response curve
Details | [1] | [2] | [3]
HPLM + 10% dialyzed FBS | 458 | 459 | 451
RPMI 5 mM glucose + 10% FBS | 432 | 429 | 448
RPMI 5 mM glucose + 10% dialyzed FBS | 432 | 456 | 447
